Source: patent EP0888340B1, “4-(BENZO-1,3-DIOXOLYL)-PYRROLIDINE-3-CARBOXYLIC ACID DERIVATIVES AS ENDOTHELIN ANTAGONISTS” (Abbott Laboratories, priority 1996, dated 1997)
Structures can show the parent of a compound that is named as a salt. One block for each compound: values may come before it.

Target: T1, ETB Receptor (Sus scrofa, UniProt P35463)
T1 construct: Porcine cerebellum was homogenized in 25 volumes (w/v) of 10 mM Hepes (pH 7.4); from tissue; host or cells: porcine cerebellum membranes
T1 sequence (P35463 27-443): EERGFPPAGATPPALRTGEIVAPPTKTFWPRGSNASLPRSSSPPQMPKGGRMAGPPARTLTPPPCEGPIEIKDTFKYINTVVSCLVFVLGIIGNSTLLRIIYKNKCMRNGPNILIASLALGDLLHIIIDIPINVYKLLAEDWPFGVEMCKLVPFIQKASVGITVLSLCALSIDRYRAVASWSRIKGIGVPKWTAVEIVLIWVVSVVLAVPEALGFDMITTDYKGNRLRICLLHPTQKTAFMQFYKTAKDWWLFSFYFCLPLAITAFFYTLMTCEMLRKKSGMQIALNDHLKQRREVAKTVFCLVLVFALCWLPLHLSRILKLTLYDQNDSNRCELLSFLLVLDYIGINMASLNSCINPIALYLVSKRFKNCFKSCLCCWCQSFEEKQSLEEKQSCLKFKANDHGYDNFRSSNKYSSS
Test: ETB receptor binding assay: [125I]ET-3 binding to membranes
Conditions: test compound 1 µM; displacement of 0.1 nM [125I]ET-3; Porcine cerebellum membranes; 4 hours at 25 °C
Protocol: Preparation of membranes from Porcine cerebellum:
Porcine cerebellum was homogenized in 25 volumes (w/v) of 10 mM Hepes (pH 7.4) containing 0.25 M sucrose and protease inhibitors (3 mM EDTA, 0.1 mM PMSF, and 5 µg/ml Pepstatin A) by 3-10 sec polytron at 13,500 rpm with 10 sec intervals. The mixture was centrifuged at 1000xg for 10 min. The supernatant was collected and centrifuged at 30,000xg for 30 min. The precipitate was resuspended in Buffer A (20 mM Tris, 100 mM NaCl, 10 mM MgCl2, pH 7.4) containing the aforementioned protease inhibitors and centrifuged again. The final pellet was resuspended in Buffer A containing protease inhibitors and stored at -80°C until used. Protein content was determined by the Bio-Rad dye-binding protein assay.
[^125I]ET-3 binding to membranes:
Binding assays were performed in 96-well microtiter plates pretreated with 0.1% BSA. Membranes prepared from cells were diluted ∼100 fold in Buffer B (20 mM Tris, 100 mM NaCl, 10 mM MgCl2, pH 7.4, with 0.2% BSA, 0.1 mM PMSF, 5 µg/mL Pepstatin A, 0.025% bacitracin, and 3 mM EDTA) to a final concentration of 0.2 mg/mL of protein. In competition studies, membranes (0.02 mg) were incubated with 0.1 nM of [^125I]ET-3 in Buffer B (final volume: 0.2 mL) in the presence of increasing concentrations of unlabeled ET-3 or a test compound for 4 hours at 25 °C. After incubation, unbound ligands were separated from bound ligands by a vacuum filtration method using glass-fiber filter strips in PHD cell harvesters (Cambridge Technology, Inc., MA), followed by washing the filter strips with saline (1 mL) for three times. Nonspecific binding was determined in the presence of 1 µM ET-1. The per cent inhibition at a concentration of 1 µM is shown. […]

Compound: CCCOc1ccc([C@H]2[C@H](C(=O)O)[C@@H](c3cc(OC)c4c(c3)OCO4)CN2CC(=O)Nc2c(CC)cccc2CC)cc1 (racemic) [Example 12, trans,trans-2-(4-propoxyphenyl)-4-(7-methoxy-1,3-benzodioxol-5-yl)-1-((2,6-diethyl)phenylaminocarbonylmethyl)-pyrrolidine-3-carboxylic acid]
inhibition at 1 µM: 96.7%

Compound: COc1ccc([C@H]2[C@H](C(=O)O)[C@@H](c3ccc4c(c3)OCO4)CN2CC(=O)Nc2c(OC)cccc2OC)cc1 [Example 16, trans,trans-2-(4-methoxyphenyl)-4-(1,3-benzodioxol-5-yl)-1-((2,6-dimethoxy)phenylaminocarbonylmethyl)-pyrrolidine-3-carboxylic acid]
inhibition at 1 µM: 92.3%

Compound: CCc1cccc(CC)c1NC(=O)CN1C[C@H](c2ccc3c(c2)OCO3)[C@@H](C(=O)O)[C@@H]1c1ccc(OC)cc1 [Example 15, [2R,3R,4S]2-(4-Methoxyphenyl)-4-(1,3-benzodioxol-5-yl)-1-(N-(2,6-diethyl)phenylaminocarbonylmethyl)-pyrrolidine-3-carboxylic acid, hydrochloride salt]
inhibition at 1 µM: 93.4%

Compound: CCc1cccc(CC)c1NC(=O)CN1C[C@H](c2cc(OC)c3c(c2)OCO3)[C@@H](C(=O)O)[C@@H]1c1ccc(OC)c(F)c1 (racemic) [Example 8, trans,trans-2-(3-Fluoro-4-methoxyphenyl)-4-(7-methoxy-1,3-benzodioxol-5-yl)-1-((2,6-diethyl)phenylaminocarbonylmethyl)-pyrrolidine-3-carboxylic acid]
inhibition at 1 µM: 93.6%

The next lines start with the values.

inhibition at 1 µM: 94.9%
Compound: CCc1cc(CC)c(NC(=O)CN2C[C@H](c3ccc4c(c3)OCO4)[C@@H](C(=O)O)[C@@H]2c2ccc(OC)cc2)c(CC)c1 [Example 19, trans,trans-2-(4-methoxyphenyl)-4-(1,3-benzodioxol-5-yl)-1-((2,4,6-triethyl)phenylaminocarbonylmethyl)-pyrrolidine-3-carboxylic acid]

inhibition at 1 µM: 98%
Compound: COc1ccc([C@H]2[C@H](C(=O)O)[C@@H](c3ccc4c(c3)OCO4)CN2CC(=O)Nc2c(C)cccc2C(C)C)cc1 [Example 26, trans,trans-2-(4-methoxyphenyl)-4-(1,3-benzodioxol-5-yl)-1-((2-isopropyl-6-methyl)phenylaminocarbonylmethyl)-pyrrolidine-3-carboxylic acid]
